Reference: patent US20260374750A1, “LIGANDS SPECIFICALLY TARGETING VESICULAR GLUTAMATE TRANSPORTERS FOR SUPER-RESOLUTION IMAGING” (SORBONNE UNIVERSITÉ, priority 2021, published 2026)

System: VGLUTs (GLU vesicular transport)
Assay: Vesicular glutamate reuptake test ([3H]-glutamate, synaptic vesicles)
Type: biochemical, rat
Conditions: for EC50: vesicular glutamate transport; for potency in words (EC50): based on EC50
Experimental: The EC50 was also determined for several of the compounds of the invention.
The vesicular glutamate reuptake was tested as previously described (Kish and Ueda, 1989; Naito and Ueda, 1985; Pietrancosta et al., 2010) with minor modifications. Aliquots of synaptic vesicles […] (obtained by differential centrifugation of rat cortex) were diluted in a solution containing 4 mM HEPES-KOH, pH 7.4 and 0.32M sucrose. The tested compounds were dissolved in 1% ethanol, 1% DMSO (pH was adjusted to 7.4 with 5% KOH) to initial concentrations comprised between 2 mM and 200 μM. The compounds were then diluted to desired final concentrations in a solution containing 10 mM HEPES-KOH, pH 7.4, 0.32 M sucrose, 4 mM KCl, 4 mM MgSO4 (named TPU). The tested compounds were pre-incubated in a solution containing 3 mM ATP-Mg, 1 mM L-aspartic acid, 100 μM glutamate and 0.4 mM […] and 0.4 μM [3H]-Glutamate (1.547 TBq/mmol). After 4 min at 37 °C, the reuptake reaction was initiated by the addition of rat synaptic vesicles. This mixture was incubated for 10 min at 37 °C before adding ice-cold TPU (3.5 mL) and rapidly filtering it through a membrane filter ([…], Millipore MF reference HAWP02500) using a vacuum collector. The filters were washed five times with 3.5 mL of cold TPU and placed in scintillation vials with a scintillation cocktail (optiphase hisafe 3, reference 1200-437, Perkin Elmer). The radioactivity related to the filters was measured in a Beckman LS 6500 scintillation spectrophotometer. The values obtained in the absence of ATP-Mg or in the presence of Carbonyl [COMPOUND LEFT OUT] 3-chlorophenylhydrazone (CCCP, 50 μM reference Sigma C2759) were used to determine the non-specific activity.

| EC50 (coumarin-derived compounds) | SMILES | % inhibition of GLU vesicular transport at 20 μM (coumarin-derived compounds) | also measured |
| --- | --- | --- | --- |
| 267 µM | O=C(O)c1cc2cc(C#Cc3ccccc3)c(O)cc2oc1=O [LSP17-1177, 7-hydroxy-2-oxo-6-(phenylethynyl)-2H-chromene-3-carboxylic Acid] | 20% | – |
| – | O=C(O)c1cc2cc(/N=N/c3ccc(Br)cc3)c(O)cc2oc1=O [LSP9-5096, (E)-6-((4-bromophenyl)diazenyl)-7-hydroxy-2-oxo-2H-chromene-3-carboxylic Acid] | 10% | – |
| – | CCN(CC)c1cc2oc(=O)c(C(=O)O)cc2cc1C#Cc1ccccc1 [LSP17-1042, 7-(diethylamino)-2-oxo-6-(phenylethynyl)-2H-chromene-3-carboxylic Acid] | 12% | – |
| – | COc1cc(Br)ccc1/N=N/c1cc(OC)c2oc(=O)c(C(=O)O)cc2c1 [LSP9-3163] | 9% | – |
| – | COc1cc2oc(=O)c(C(=O)O)cc2cc1/N=N/c1ccc(-c2ccc(N)cc2)cc1 [LSP9-4089, (E)-6-((4′-aminobiphenyl-4-yl)diazenyl)-7-methoxy-2-oxo-2H-chromene-3-carboxylic Acid] | 35% | – |
| 5 µM | Nc1ccc(-c2ccc(C#Cc3ccc4oc(=O)c(C(=O)O)cc4c3)cc2)cc1 [LSP17-1125, 6-((4′-amino-[1,1′-biphenyl]-4-yl)ethynyl)-2-oxo-2H-chromene-3-carboxylic Acid] | 100% | potency in words (EC50): effective at a very low concentration |
| – | COc1cc2oc(=O)c(C(=O)O)cc2cc1C#Cc1ccc(-c2ccc(N)cc2)cc1 [LSP17-1127, 6-((4′-amino-[1,1′-biphenyl]-4-yl)ethynyl)-7-methoxy-2-oxo-2H-chromene-3-carboxylic Acid] | 40% | – |
| 30 µM | COc1cc2oc(=O)c(C(=O)O)cc2cc1/N=N/c1ccc(Br)cc1 [LSP9-3164] | 40% | – |
| – | O=C(O)c1cc2cc(/N=N/c3ccc(Br)cc3)ccc2oc1=O [LSP9-3160, (E)-6-((4-bromophenyl)diazenyl)-2-oxo-2H-chromene-3-carboxylic Acid] | 14% | – |
| 50 µM | COc1cc2oc(=O)c(C(=O)O)cc2cc1/N=N/c1ccccc1 [LSP9-4108, (E)-7-methoxy-2-oxo-6-(phenyldiazenyl)-2H-chromene-3-carboxylic Acid] | 30% | – |
| – | COc1cc(Br)ccc1/N=N/c1cc2cc(C(=O)O)c(=O)oc2cc1OC [LSP9-4150] | 15% | – |
| – | O=C(O)c1cc(C(=O)O)c2cc(-c3ccc(-c4ccc(-c5ccc6nc(C(=O)O)cc(C(=O)O)c6c5)cc4)cc3)ccc2n1 [LSP13-1160-YL160, 6,6′-(Biphenyl-4,4′-diyl)diquinoline-2,4-dicarboxylic Acid] | – | % inhibition of GLU vesicular transport at 20 μM (quinoline-derived compounds): 100%; EC50 (quinoline-derived compounds): 3.6 µM |
| – | O=C(O)c1cc2cc(/N=N/c3ccccc3)ccc2oc1=O [LSP9-4126, (E)-2-oxo-6-(phenyldiazenyl)-2H-chromene-3-carboxylic Acid] | 5% | – |
| 5 µM | CCN(CC)c1cc2oc(=O)c(C(=O)O)cc2cc1C#Cc1ccc(-c2ccc(N)cc2)cc1 [LSP17-1126, 6-((4′-amino-[1,1′-biphenyl]-4-yl)ethynyl)-7-(diethylamino)-2-oxo-2H-chromene-3-carboxylic Acid] | 100% | potency in words (EC50): effective at a very low concentration |
| – | O=C(O)c1cc(C(=O)O)c2cc(/C=C/c3ccc(-c4ccc(/C=C/c5ccc6nc(C(=O)O)cc(C(=O)O)c6c5)cc4)cc3)ccc2n1 [LSP13-1173-YL173, 6,6′-2,2′-(biphenyl-4,4′-diyl)bis(ethene-2,1-diyl)diquinoline-2,4-dicarboxylic Acid] | – | % inhibition of GLU vesicular transport at 20 μM (quinoline-derived compounds): 72%; EC50 (quinoline-derived compounds): 15 µM |
| – | O=C(O)c1cc2cc(/C=C/c3ccccc3)ccc2oc1=O [LSP16-2074, (E)-2-oxo-6-styryl-2H-chromene-3-carboxylic Acid] | 30% | – |
| 21 µM | COc1cc2oc(=O)c(C(=O)O)cc2cc1C#Cc1ccccc1 [LSP17-1046, 7-methoxy-2-oxo-6-(phenylethynyl)-2H-chromene-3-carboxylic Acid] | 48% | – |
| 20 µM | CCN(CC)c1cc2oc(=O)c(C(=O)O)cc2cc1-n1cc(-c2ccc(-c3ccc(N)cc3)cc2)nn1 [LSP17-1154, 6-(4-(4′-amino-[1,1′-biphenyl]-4-yl)-1H-1,2,3-triazol-1-yl)-7-(diethylamino)-2-oxo-2H-chromene-3-carboxylic Acid] | 50% | – |
| – | COc1cc2oc(=O)c(C(=O)O)cc2cc1/C=C/c1ccccc1 [LSP16-2077, (E)-7-methoxy-2-oxo-6-styryl-2H-chromene-3-carboxylic acid] | 30% | – |
| – | CCOC(=O)c1cc(C(=O)OCC)c2cc(-c3ccc(-c4ccc(-c5ccc6nc(C(=O)OCC)cc(C(=O)OCC)c6c5)cc4)cc3)ccc2n1 [LSP13-1153-YL153, Tetraethyl 6,6′-(biphenyl-4,4′-diyl)diquinoline-2,4-dicarboxylate] | – | % inhibition of GLU vesicular transport at 20 μM (quinoline-derived compounds): 69%; EC50 (quinoline-derived compounds): 12.3 µM |
| 15 µM | CCN(CC)c1cc2oc(=O)c(C(=O)O)cc2cc1-n1cc(-c2ccccc2)nn1 [LSP17-1153, 7-(diethylamino)-2-oxo-6-(4-phenyl-1H-1,2,3-triazol-1-yl)-2H-chromene-3-carboxylic Acid] | 62% | – |
| 25 µM | COc1cc2oc(=O)c(C(=O)O)cc2cc1-n1cc(-c2ccccc2)nn1 [LSP17-1116, 7-methoxy-2-oxo-6-(4-phenyl-1H-1,2,3-triazol-1-yl)-2H-chromene-3-carboxylic Acid] | 45% | – |
| – | COc1cc(/N=N/c2ccc(Br)cc2)cc2cc(C(=O)O)c(=O)oc12 [LSP9-3162] | 42% | – |
| – | O=C(O)c1cc2cc(/N=N/c3ccccc3)c(O)cc2oc1=O [LSP9-4153, (E)-7-hydroxy-2-oxo-6-(phenyldiazenyl)-2H-chromene-3-carboxylic Acid] | 12% | – |
| 23 µM | O=C(O)c1cc2cc(-n3cc(-c4ccccc4)nn3)ccc2oc1=O [LSP17-1100, 2-oxo-6-(4-phenyl-1H-1,2,3-triazol-1-yl)-2H-chromene-3-carboxylic Acid] | 48% | – |
| – | O=C(O)c1cc2cc(C#Cc3ccccc3)ccc2oc1=O [LSP17-1044, 2-oxo-6-(phenylethynyl)-2H-chromene-3-carboxylic Acid] | 30% | – |
